Measured values: US8513250B2 (Laboratoire Biodim, priority 2007, dated 2013)
Counter-ions that a name gives are not always drawn.

biological target: T1, DltA enzyme (Streptococcus agalactiae serotype III, UniProt Q8VM67); test: DltA HTS assays (luminescent / fluorescent), inhibition of DltA enzymatic activity in vitro; type: biochemical, S. agalactiae; conditions: not given
T1 construct: His-tag (from pET100 vector) (N); made in house; host or cells: E. coli BL21 (DE3) Star
T1 sequence (Q8VM67 1-511): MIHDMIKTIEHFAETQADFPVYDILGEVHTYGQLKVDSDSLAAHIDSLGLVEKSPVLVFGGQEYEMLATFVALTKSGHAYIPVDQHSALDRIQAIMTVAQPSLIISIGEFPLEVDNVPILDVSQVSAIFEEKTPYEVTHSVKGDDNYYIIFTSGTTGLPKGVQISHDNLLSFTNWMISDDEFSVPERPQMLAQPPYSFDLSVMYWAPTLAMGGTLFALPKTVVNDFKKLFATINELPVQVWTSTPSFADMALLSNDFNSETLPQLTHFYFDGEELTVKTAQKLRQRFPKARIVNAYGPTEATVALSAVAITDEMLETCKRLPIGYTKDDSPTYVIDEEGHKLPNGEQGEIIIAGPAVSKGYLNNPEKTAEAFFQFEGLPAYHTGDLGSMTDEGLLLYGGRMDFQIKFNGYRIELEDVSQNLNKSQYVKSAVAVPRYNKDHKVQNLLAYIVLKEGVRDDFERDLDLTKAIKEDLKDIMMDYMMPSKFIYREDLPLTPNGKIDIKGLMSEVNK
Text: The compounds effect on DltA enzyme has been based on the measure of the inhibition of DltA activity in vitro.
To this end, a recombinant protein Dlta was expressed and purified after cloning of the gene of S. agalatiae as described below:
Methods 1: DltA HTS Assays
The assay described below makes use of dithiothreitol (DTT) instead of DltC as reactive thiol in the catalyzed reaction. In fact, the inventors have shown that DTT, but also Coenzyme A and N-Acetylcysteamine are all thiols able to replace efficiently DltC. In addition, contrary to the prior art, radioactivity is not used: all the assays are based either on luminescent ATP detection, or on fluorescent AMP detection. They are easily amenable to miniaturized formats and fast readouts as required by HTS.
The assay buffer “AB” contains 50 mM Hepes pH8.0, 10 mM MgCl2, 50 mM KCl, 0.012% Triton-X100. The following components are added in a white polystyrene Costar plate up to a final volume of 30 μL: 3 μL DMSO, or inhibitor dissolved in DMSO and 27 μL DltA enzyme and DTT in AB. After 30 min of pre-incubation at room temperature, 30 μL of Substrates mix in AB are added in each well to a final volume of 60 μL. This reaction mixture is then composed of 10 nM DltA (produced in house from S. agalactiae), 0.5 mM D-Alanine (Sigma), 0.5 μM ATP (Sigma) and 1 mM DTT (Biochemika) in assay buffer. After 90 min of incubation at room temperature, 30 μL of the revelation mix are added to a final volume of 90 μL, including the following constituents at the respective final concentrations: 2 nM luciferase (Sigma), 30 μM D-luciferin (Sigma), 100 μM N-acetylcysteamine (Aldrich). Luminescence intensity is immediately measured on an Analyst-HT (Molecular Devices) and converted into inhibition percentages. For IC50 (Inhibitory Concentration 50%) determinations, the inhibitor is added at 6 to 10 different concentrations, and the related inhibitions are fitted to a classical langmuir equilibrium model using XLFIT (IDBS).
The assay buffer “AB” contains 50 mM Hepes pH8.0, 10 mM MgCl2, 50 mM KCl, 0.012% Triton-X100. The following components are added in a black polystyrene Costar plate up to a final volume of 50 μL: 5 μL DMSO, or inhibitor dissolved in DMSO and 45 μL DltA enzyme and DTT in AB. After 30 min of pre-incubation at room temperature, 50 μL of Substrates-revelation mix in AB are added in each well to a final volume of 100 μL. This reaction mixture is then composed of 5 nM DltA (produced in house from S. agalactiae), 0.5 mM D-Alanine (Sigma), 10 μM ATP (Sigma), 1 mM DTT (Biochemika), 10 nM Adenylate kinase (produced in house), 5 u/mL Pyruvate Kinase (Sigma), 50 μM phosphoenolpyruvate (Sigma), 5 u/mL Lactate deshydrogenase (Sigma) and 3 μM NADH (Sigma) in assay buffer. Fluorescence intensity of NADH (λex=360 nm, λem=520 nm) is immediately measured kinetically by a Fluostar Optima (BMG). Inhibition percentages are derived from fitted initial velocities. For IC50 determinations, the inhibitor is added at 6 to 10 different concentrations, and the related inhibitions are fitted to a classical langmuir equilibrium model using XLFIT (IDBS). FIG. 2 represents the data obtained using this method.
The capacity of compounds to inhibit DltA enzymatic activity was assessed using the DltA HTS assays described in method 1.

Question: With `COc1ccc(-c2cc(-c3cnc4c(NCCCO)nc5cc(C(F)(F)F)ccc5n34)[nH]n2)cc1` [Example 31, 3-({1-[1H-pyrazol-3-(4-methoxyphenyl)-5-yl]-7-(trifluoromethyl)imidazo[1,2-a]quinoxalin-4-yl}amino)propan-1-ol] as the compound, how does the IC50 read?
Answer: The IC50 was 0.79 µM.

same assay, conditions: IC50 (μM), Table 1; DltA inhibition, HTS assays of method 1

Question: With `CS(=O)(=O)Nc1ccc(-c2cnc3c(NCCCO)nc4cc(C(F)(F)F)ccc4n23)cc1` [Example 23, N-{4-[4-(3-Hydroxy-propylamino)-7-trifluoromethyl-imidazo[1,2-a]quinoxalin-1-yl]phenyl}-methanesulfonamide Sodium salt] as the compound, how does the IC50 read?
Answer: Its IC50 is 0.21 µM.

same assay, conditions: Table 1; DltA inhibition, HTS assays of method 1; read-out: IC50

Question: How did the IC50 turn out when `OCCCNc1nc2cc(C(F)(F)F)ccc2n2c(-c3cn[nH]c3)cnc12` [Example 17, 3-{[1-(1H-pyrazol-4-yl)-7-(trifluoromethyl)imidazo[1,2-a]quinoxalin-4-yl]amino}propan-1-ol] was run?
Answer: The IC50 was 0.51 µM.

Question: For `OCCCNc1nc2cc(C(F)(F)F)ccc2n2c(I)cnc12` [Example 3, 3-{[1-iodo-7-(trifluoromethyl)imidazo[1,2-a]quinoxalin-4-yl]amino}propan-1-ol], which IC50 is on record?
Answer: Its IC50 is 0.62 µM.

Question: With `CS(=O)(=O)Nc1ccc(-c2cnc3c(NCCCO)nc4cc(C(F)(F)F)ccc4n23)cc1` [Example 12, N-{4-[4-(3-Hydroxy-propylamino)-7-trifluoromethyl-imidazo[1,2-a]quinoxalin-1-yl]-phenyl}-methanesulfonamide] as the compound, how does the IC50 read?
Answer: Its IC50 is 0.087 µM.

Question: With `OCCCNc1nc2cc(C(F)(F)F)ccc2n2c(C3=CCNCC3)cnc12` [Example 27, 3-[1-(1,2,3,6-tetrahydro-pyridin-4-yl)-7-trifluoromethyl-imidazo[1,2-a]quinoxalin-4-ylamino]-propan-1-ol] as the compound, how does the IC50 read?
Answer: The IC50 was 2.6 µM.

Question: For `Cn1cnc2c(NCCCO)nc3cc(C(F)(F)F)ccc3c21` [Example 25, 3-{[1-methyl-7-(trifluoromethyl)-1H-imidazo[4,5-c]quinolin-4-yl]amino}propan-1-ol], which IC50 is on record?
Answer: Its IC50 is 17 µM.

Question: How did the IC50 turn out when `CNC(=O)NCc1cnc2c(NCCCO)nc3cc(C(F)(F)F)ccc3n12` [Example 43, 1-({4-[(3-hydroxypropyl)amino]-7-(trifluoromethyl)imidazo[1,2-a]quinoxalin-1-yl}methyl)-3-methylurea] was run?
Answer: The IC50 was 1.2 µM.

Question: Which IC50 does the source give for `OCCCNc1nc2cc(Br)ccc2n2ccnc12` [Example 4, 3-(7-bromo-imidazo[1,2-a]quinoxalin-4-ylamino)-propan-1-ol] here?
Answer: The IC50 was 6.6 µM.

Question: `NS(=O)(=O)c1cccc(-c2cnc3c(NCCCO)nc4cc(C(F)(F)F)ccc4n23)c1` [Example 9, 3-{4-[(3-hydroxypropyl)amino]-7-(trifluoromethyl)imidazo[1,2-a]quinoxalin-1-yl}benzenesulfonamide] was tested. Which IC50 did it give?
Answer: The IC50 was 0.69 µM.

Question: With `OCCCNc1nc2cc(C(F)(F)F)ccc2n2c(-c3cc(O)n[nH]3)cnc12` [Example 37, 3-({1-(3-hydroxy-1H-pyrazol-5-yl)-7-(trifluoromethyl)imidazo[1,2-a]quinoxalin-4-yl}amino)propan-1-ol] as the compound, how does the IC50 read?
Answer: The IC50 was 0.16 µM.

Question: How did the IC50 turn out when `OCCCNc1nc2cc(C(F)(F)F)ccc2n2ccnc12` [Example 1, 3-{[7-(trifluoromethyl)imidazo[1,2-a]quinoxalin-4-yl]amino}propan-1-ol] was run?
Answer: Its IC50 is 3.2 µM.

Question: For `O=C(O)c1cc(-c2cnc3c(NCCCO)nc4cc(C(F)(F)F)ccc4n23)[nH]n1` [Example 48, 5-{4-[(3-hydroxypropyl)amino]-7-(trifluoromethyl)imidazo[1,2-a]quinoxalin-1-yl}-1H-pyrazole-3-carboxylic acid], which IC50 is on record?
Answer: The IC50 was 5 µM.

Question: For `COc1ccc(-n2cnc3c(NCCCO)nc4cc(C(F)(F)F)ccc4c32)cc1` [Example 24, 3-[1-(4-Methoxy-phenyl)-7-trifluoromethyl-1H-imidazo[4,5-c]quinolin-4-ylamino]-propan-1-ol], which IC50 is on record?
Answer: Its IC50 is 3.9 µM.

Question: With `CS(=O)(=O)N1CC=C(c2cnc3c(NCCCO)nc4cc(C(F)(F)F)ccc4n23)CC1` [Example 29, 3-[1-(1-methanesulfonyl-1,2,3,6-tetrahydro-pyridin-4-yl)-7-trifluoromethyl-imidazo[1,2-a]quinoxalin-4-ylamino]-propan-ol] as the compound, how does the IC50 read?
Answer: Its IC50 is 0.41 µM.

Question: With `OCCCNc1nc2cc(C(F)(F)F)ccc2n2c(-c3ccccc3)cnc12` [Example 11, 3-{[1-phenyl-7-(trifluoromethyl)imidazo[1,2-a]quinoxalin-4-yl]amino}propan-1-ol] as the compound, how does the IC50 read?
Answer: The IC50 was 0.73 µM.

Question: How did the IC50 turn out when `Cc1n[nH]c(-c2cnc3c(NCCCO)nc4cc(OC(F)(F)F)ccc4n23)n1` [Example 55] was run?
Answer: The IC50 was 0.025 µM.

Question: Which IC50 does the source give for `OCCCNc1nc2cc(-c3ccccc3C(F)(F)F)ccc2n2c(-c3ccn[nH]3)cnc12` [Example 54, 3-{[1-(1H-pyrazol-5-yl)-7-(2-[trifluoromethyl]phenyl)imidazo[1,2-a]quinoxalin-4-yl]amino}propan-1-ol] here?
Answer: The IC50 was 0.022 µM.

Question: How did the IC50 turn out when `NCc1cnc2c(NCCCO)nc3cc(C(F)(F)F)ccc3n12` [Example 45, 3-{[1-(aminomethyl)-7-(trifluoromethyl)imidazo[1,2-a]quinoxalin-4-yl]amino}propan-1-ol] was run?
Answer: The IC50 was 5.5 µM.

Question: Which IC50 does the source give for `OCCCNc1nc2cc(OC(F)(F)F)ccc2n2ccnc12` [Example 7, 3-{[7-(trifluoromethoxy)imidazo[1,2-a]quinoxalin-4-yl]amino}propan-1-ol] here?
Answer: Its IC50 is 2.2 µM.

Question: For `Cc1cn[nH]c1-c1cnc2c(NCCCO)nc3cc(C(F)(F)F)ccc3n12` [Example 40, 3-({1-[4-methyl-1H-pyrazol-5-yl]-7-(trifluoromethyl)imidazo[1,2-a]quinoxalin-4-yl}amino)propan-1-ol], which IC50 is on record?
Answer: The IC50 was 0.057 µM.

Question: With `OCCCNc1nc2cc(C(F)(F)F)ccc2n2c(-c3cc(CO)n[nH]3)cnc12` [Example 49, 3-({1-[3-(hydroxymethyl)-1H-pyrazol-5-yl]-7(trifluoromethyl)imidazo[1,2-a]quinoxalin-4-yl}amino)propan-1-ol] as the compound, how does the IC50 read?
Answer: Its IC50 is 0.016 µM.

Question: For `OCCCNc1nc2cc(F)c(F)cc2n2ccnc12` [Example 57, 3-[(7,8-difluoroimidazo[1,2-a]quinoxalin-4-yl)amino]propan-1-ol], which IC50 is on record?
Answer: Its IC50 is 57 µM.

Question: Which IC50 does the source give for `Nc1ncc(-c2cnc3c(NCCCO)nc4cc(C(F)(F)F)ccc4n23)cn1` [Example 20, 3-{[1-(2-aminopyrimidin-5-yl)-7-(trifluoromethyl)imidazo[1,2-a]quinoxalin-4-yl]amino}propan-1-ol] here?
Answer: Its IC50 is 0.86 µM.

Question: `O=Cc1cnc2c(NCCCO)nc3cc(C(F)(F)F)ccc3n12` [Example 41, 4-[(3-hydroxypropyl)amino]-7-(trifluoromethyl)imidazo[1,2-a]quinoxaline-1-carbaldehyde] was tested. Which IC50 did it give?
Answer: The IC50 was 4.6 µM.

Question: Which IC50 does the source give for `OCCCNc1nc2cc(C(F)(F)F)ccc2n2c(CNCc3ccccc3)cnc12` [Example 44, 3-({1-[(benzylamino)methyl]-7-(trifluoromethyl)imidazo[1,2-a]quinoxalin-4-yl}amino)propan-1-ol] here?
Answer: The IC50 was 6.1 µM.

Question: `COc1ccc(-c2cnc3c(NCCCO)nc4cc(C(F)(F)F)ccc4n23)cn1` [Example 13, 3-{[1-(6-methoxypyridin-3-yl)-7-(trifluoromethyl)imidazo[1,2-a]quinoxalin-4-yl]amino}propan-1-ol] was tested. Which IC50 did it give?
Answer: Its IC50 is 0.48 µM.
